Measurements published in US20070282004A1, “Use of a Cyclopentenone Prostaglandin for Delaying for the Onset and/or Preventing the Continuation of Labour” (Imperial College Innovations Limited, priority 2003, published 2007).
“Also recorded” adds a separate entry of the source.

Experiments:
NF-κB [1] = target: T1, NF-κB (Homo sapiens, UniProt P19838+Q04206); test: EMSA of NF-κB DNA binding in nuclear extracts of treated myometrial cells; format: cell-based; conditions: for IL-1β-induced NF-κB DNA binding (EMSA): myometrial cells, treated 2 h, then IL-1β 15 min
T1 construct: nuclear protein extracts from myometrial cells; endogenous in cells; host or cells: primary human myometrial cells (term, passage 1-4)
Method: (§1) Myometrial tissue was collected at term from the upper margin of uterine incision at the time of lower segment caesarean section either prior to the onset of labour (L−) or […] (L+). L+ samples were collected by Dr Mark Johnson and Dr S Soorrana at Chelsea & Westminster Hospital. Myometrial tissue was dissected, rinsed in PBS, and digested in serum-free DMEM containing 15 mg/ml collagenase 1A (Sigma), 15 mg/ml collagenase X, and 50 mg/ml bovine serum albumin for 45 min at 37° C. The cell suspension was filtered through a cell strainer, centrifuged at 400 g for 5 min, and the pellet re-suspended and plated out in DMEM, 10% FCS (Helena BioScience), 1% L-glutainine, 1% penicillin-streptomycin. Cells were used between passage numbers 1-4.
(§2) Nuclear and cytosolic protein extracts were obtained from cultured amnion cells as described by Schreiber et al (1989). For nuclear/cytosolic fractionation, confluent cell monolayers were scraped and lysed using a buffer containing 10 mM HEPES, 10 mM KCl, 0.1 mM EDTA, 0.1 mM EGTA, 2 mM DTT, 1% (v/v) NP-40 and complete protease inhibitor tablets (CPIs, Roche), diluted to manufacturer's instructions. Cell lysates were incubated on ice for 10 min and NP-40 added to a final concentration of 1% (v/v). Lysates were vortexed for 10 secs and centrifuged for 30 secs at 4° C., 12000 g. The supernatants were retained as the cytosolic protein extracts. The pellets were resuspended in buffer containing 10 mM HEPES, 10 mM KCl, 0.1 mM EDTA, 0.1 mM EGTA, 2 mM DTT, 400 mM NaCl, 1% NP-40 (v/v) and CPIs. Samples were shaken vigorously for 15 min in an ice bath. The nuclear protein extracts were obtained in the supernatant following a 5 min centrifugation at 4° C., 12000 g.
(§3) Sense and antisense strands (175 nmole/ml each) were incubated in annealing buffer (10 mM Tris-HCl pH7.5, 100 mM NaCl, 1 mM EDTA) for 10 min at 65° C., and allowed to cool at room temperature for 2 h. 3.5 pmole double-stranded oligonucleotides were end-labelled with 0.37 MBq ^32P(γATP) by incubating for 30 min at 37° C. with T4 polynucleotide kinase. Labelled oligonucleotides were recovered by centrifugation at 3000 rpm for 2 min through MicroSpin G-25 or G-50 sephadex columns (Amersham Biosciences).
(§4) 3-5 μg protein extracts were incubated on ice for 1 h with non-radiolabelled non-specific oligonucleotide (poly(dI-dC) or Oct-1) in a binding buffer (20% (v/V) glycerol, 5 mM MgCl2, 2 mM EDTA, 50 mM Tris-HCl pH7.5, 250 mM NaCl, 2 mM DTT), followed by a 45 min incubation with 0.035 pmole ^32P(γ(ATP)-end labelled oligonucleotide probes:
(§5) Oct-1 or SP-1 consensus sequences were used as a controls for a NF-κB-specific effect. The resulting protein/DNA complexes were separated in a 4% acrylamide gel, the gel dried under vacuum at 80° C. and exposed to X-ray film. For supershift analysis, samples were incubated with 2 μg antibodies for 30 min on ice prior to incubation with oligonucleotides. Non-radio-labelled oligonucleotides were used at 100-fold molar excess for specific and non-specific competition for DNA binding. Reagents for EMSA were obtained from Promega Life Sciences, Delta House, Chilworth Research Centre, Southampton SO16 7NS, United Kingdom.

NF-κB [2] = target: T1, NF-κB; test: EMSA of NF-κB DNA binding in nuclear extracts of treated amnion cells; format: cell-based; conditions: L− and L+ amnion cells, treated 2 h, then IL-1β 15 min
Method: Placentae were obtained from patients at term either at elective Caesarean section prior to labour (L−) or following spontaneous labour onset and vaginal delivery (L+). Amnion cells were prepared as described in Bennett et al., (1989). Briefly, the amnion was separated from the placenta, washed 3× in PBS, cut into strips, and incubated in 0.5 mM EDTA in PBS for 15 min. The strips were washed in PBS 2× and digested with 2.5 mg/ml dispase in serum-free DMEM for 35 min at 37° C. The amnion was then shaken vigorously in DMEM, 10% FCS to dissociate the cells, the remaining strips discarded, and the cell suspension pelleted at 175 g for 10 min and cultured in DMEM, 10% FCS (Sigma), 1% L-glutamine, 1% penicillin-streptomycin.
as §2, §3, §4, §5

NF-κB [3] = test: NF-κB-dependent luciferase reporter (κB.BG.Luc) in myometrial cells; format: cell-based, human; conditions: for IL-1β-induced NF-κB transcriptional activity (κB.BG.Luc reporter): treated 2 h, IL-1β 1 ng/ml 6 h
Method: Myometrial cells were transiently transfected with the NFκB-dependent reporter construct κB.BG.Luc, treated with 15dPGJ2 or vehicle for 2 h, ±IL-1β (1 ng/ml) for 6 h. […] Values are normalised for b-gal reporter activity. (NS=nonstimulated).
Myometrial cells were transfected with […] κB.BG.Luc reporter and 200 ng PPAR-γ expression vector and treated with 15d-PGJ2 for 2 h followed by IL-1β (1 ng/ml) for 6 h. Values are normalised for β-galactosidase reporter activity. (NS=nonstimulated).
as §1
pGL3.6κB.BG.luc: a NF-κB-dependent reporter construct with 6 copies of the NF-κB binding site.
Cells were co-transfected with the renilla vector pRL-CMV or β-galactosidase vector pCH110 as internal controls for transfection efficiencies.

PPAR-γ = target: T2, PPAR-γ (Homo sapiens, UniProt P37231); conditions: as stated from the literature; cited from earlier work
T2 sequence (P37231 1-505): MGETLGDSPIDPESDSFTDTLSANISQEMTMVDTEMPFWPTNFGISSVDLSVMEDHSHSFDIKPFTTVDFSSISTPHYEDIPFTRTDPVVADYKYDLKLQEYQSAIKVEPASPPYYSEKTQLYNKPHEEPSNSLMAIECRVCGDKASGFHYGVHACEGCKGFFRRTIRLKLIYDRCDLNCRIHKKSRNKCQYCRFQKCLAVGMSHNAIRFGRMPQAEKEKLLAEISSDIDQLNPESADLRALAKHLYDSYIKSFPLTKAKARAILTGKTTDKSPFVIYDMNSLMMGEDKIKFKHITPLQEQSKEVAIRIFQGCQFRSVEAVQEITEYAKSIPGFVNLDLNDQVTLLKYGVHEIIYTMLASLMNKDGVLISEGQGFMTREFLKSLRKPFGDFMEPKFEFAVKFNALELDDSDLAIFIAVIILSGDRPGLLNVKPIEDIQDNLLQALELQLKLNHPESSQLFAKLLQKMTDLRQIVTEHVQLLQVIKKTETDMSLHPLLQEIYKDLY

T1 sequence (Q04206 whole entry): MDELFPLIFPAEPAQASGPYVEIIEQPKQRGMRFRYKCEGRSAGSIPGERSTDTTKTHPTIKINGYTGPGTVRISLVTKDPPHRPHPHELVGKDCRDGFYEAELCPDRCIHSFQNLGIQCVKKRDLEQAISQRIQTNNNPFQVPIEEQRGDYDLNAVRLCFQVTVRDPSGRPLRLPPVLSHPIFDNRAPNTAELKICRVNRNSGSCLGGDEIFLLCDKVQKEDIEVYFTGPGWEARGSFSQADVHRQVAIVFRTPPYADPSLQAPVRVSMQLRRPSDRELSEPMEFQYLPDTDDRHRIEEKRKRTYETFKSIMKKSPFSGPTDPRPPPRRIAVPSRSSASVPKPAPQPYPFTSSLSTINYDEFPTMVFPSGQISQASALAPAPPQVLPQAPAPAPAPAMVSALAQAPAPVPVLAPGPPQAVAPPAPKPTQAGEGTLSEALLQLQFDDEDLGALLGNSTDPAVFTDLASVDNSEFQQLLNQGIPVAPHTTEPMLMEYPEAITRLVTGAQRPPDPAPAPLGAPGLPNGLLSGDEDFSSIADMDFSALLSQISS
T1 sequence (P19838 1-433 limits assumed): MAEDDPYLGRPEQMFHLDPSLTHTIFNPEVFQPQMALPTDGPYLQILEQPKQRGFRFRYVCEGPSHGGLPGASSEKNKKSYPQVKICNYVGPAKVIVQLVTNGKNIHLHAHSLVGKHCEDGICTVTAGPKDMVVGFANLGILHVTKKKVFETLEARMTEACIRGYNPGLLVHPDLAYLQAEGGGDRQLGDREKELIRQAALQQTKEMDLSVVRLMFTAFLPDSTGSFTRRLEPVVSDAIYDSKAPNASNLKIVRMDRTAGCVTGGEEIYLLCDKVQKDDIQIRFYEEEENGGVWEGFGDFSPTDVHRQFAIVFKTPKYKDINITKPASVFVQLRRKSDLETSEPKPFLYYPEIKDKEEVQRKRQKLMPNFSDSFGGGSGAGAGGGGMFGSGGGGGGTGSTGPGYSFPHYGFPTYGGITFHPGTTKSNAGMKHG

Structure (SMILES): CCCCCC=CC=C1C(=O)C=C[C@@H]1CC=CCCCC(=O)O [15d-PGJ2, 15-deoxy-Δ^12,14prostaglandin J2]
- Protein binding to a consensus Oct-1 or Sp-1 probe (control) (NF-κB [1]; myometrial and amnion cells): unaffected
- IL-1β-induced NF-κB DNA binding (EMSA) (NF-κB [1]): inhibited IL1-β-induced NF-κB DNA binding in a dose-dependent manner
- IL-1β-induced NF-κB DNA binding (EMSA) (NF-κB [1]; listed as 15dPGJ2): inhibition
- IL-1β-induced NF-κB DNA binding (EMSA) (NF-κB [2]): inhibited IL1-β-induced NF-κB DNA binding in a dose-dependent manner
- IL-1β-induced NF-κB DNA binding (EMSA) (NF-κB [2]; listed as 15dPGJ2): inhibition
- Effect of PPARγ overexpression on 15d-PGJ2 inhibition of NF-κB transcriptional activity (NF-κB [3]; 200 ng PPAR-γ expression vector): does not potentiate
- IL-1β-induced NF-κB transcriptional activity (κB.BG.Luc reporter) (NF-κB [3]): reducing reporter activity to basal levels; also recorded: inhibited
- IL-1β-induced NF-κB transcriptional activity (κB.BG.Luc reporter) (NF-κB [3]; listed as 15dPGJ2): inhibition
- PPAR agonist / ligand activity (PPAR-γ): is a PPAR agonist

Structure (SMILES): CCCCC[C@H](O)/C=C/[C@H]1C=CC(=O)[C@@H]1CCCCCCC(=O)O [PGA1, prostaglandin A1]
- IL-1β-induced NF-κB DNA binding (EMSA) (NF-κB [1]): inhibition
- IL-1β-induced NF-κB DNA binding (EMSA) (NF-κB [2]): inhibition
- IL-1β-induced NF-κB transcriptional activity (κB.BG.Luc reporter) (NF-κB [3]): reduced to basal levels
- PPAR agonist / ligand activity (PPAR-γ): does not act as a PPAR ligand
